Measurements published in patent US20090054376A1, “BENZOFURAN DERIVATIVES WITH THERAPEUTIC ACTIVITIES” (Pharmos Corporation, priority 2005, published 2009).

System: TNBS induced inflammatory bowel disease
Test: TNBS induced inflammatory bowel disease
Assay type: in vivo, Female Balb/C mice
Details: 20 mg/kg i.p. daily
Experimental: Female Balb/C mice (average body weight 20 g, Harlan, Israel) were lightly sedated and challenged rectally, by instillation with 70 μl of 2.5% TNBS (Sigma) dissolved in 50% ethanol, to induce intestinal inflammation and colitis. Animals were weighted before the beginning of the study and treatment was administered i.p. on a daily basis for six days at 20 mg/kg and volume dosage of 5 ml/kg. During the study period of up to 7 days, the following parameters were daily monitored and recorded: body weight, presence of blood in the stool and stool consistency. These findings are scored according to Table 6 [Murthy S.N. et al., Dig. Dis. Sci. 38:1722-34, 1993].
On the last day of the study, animals were euthanized. Abdomen was open and the colon was sectioned at the level of the caecum and the rectum. The colon was weighted and its length was measured. The whole column was excised, slited longitudinally, and examined under a magnifying lens. Any visible damage was recorded and scored for gross pathology according to Wong [Wong et al., J. Pharm. Exp. Ther. 274: 475-80, 1995]. Namely, a score of 0 indicates no damage, 1 indicates localized hyperemia and/or edema, 2 indicates at least two sites of hyperemia and/or edema, 3 indicates localized erosion, 4 indicates localized ulcer and 5 indicates either an erosion site or ulcer extending for more than 2 cm along the colon or at least two sites of erosion or ulcer. Finally, the entire colon was fixed in 4% formaldehyde for histopathological evaluation.
Each treatment group comprised at least seven animals. The following groups served as negative controls: naïve animals, sham animals that received 70 μl of 50% ethanol without TNBS, and TNBS challenged untreated and vehicle treated animals. A group of animals receiving 10 mg/kg sulfasalazine served as positive controls. Sulfasalazine is a standard anti-inflammatory drug used for the treatment of mild to moderate ulcerative colitis and Crohn's disease, and as adjunctive therapy in the treatment of severe ulcerative colitis. This drug is also used for the treatment of non-IBD related disorders, such as rheumatoid arthritis and ankylosing spondylitis. The recognized side effect of this medicament is its hepatotoxicity upon chronic treatment.

CCCCC(C)(C)c1cc(O)c2c(c1)OC1CCCCC21 (stereo not drawn) [Compound C6S-3, 3-(1,1-dimethylpentyl)-5a,6,7,8,9,9a-hexahydro-dibenzofuran-1-ol]
regained normal weight after: 4 days of treatment
transient loss in body weight (one day after TNBS instillation): about 5%
mortality (untreated 60%): 7%
